The term clearance denotes the volume of plasma or blood freed of the substance per unit of time. A word on the Vd: it is a proportionality between amount in the body and measured concentration, not a real space. Low readings indicate little distribution into tissue, high ones wide distribution into tissue. In general, half-life refers to the time in which the quantity being followed falls by half. Read a high half-life as slow decline.

Starred links: 1 amine or outer side, 2 acyl side, 3 side chain; linkers in the order of their positions; H or OH if unused. Positions of bridges follow the written chain, without caps; N, C: chain ends. Residues, ends and D or L forms follow the SMILES beside them. Groups on a side chain read outwards from the residue. *: point of attachment. γGlu = O=C(O)[C@H](CCC(=O)[*:2])N[*:1]; C12 diacid = O=C(O)CCCCCCCCCCC(=O)*; Palmitoyl = CCCCCCCCCCCCCCCC(=O)*

A short description of data set [1]: Pharmacokinetics, 3-hour intravenous infusion of linear (non-acylated) polypeptides. Particulars: rat, in vivo, iv, 0.1 mg/kg. Details: species or system Sprague-Dawley rats. On the procedure:
Peptides were dissolved in sterile saline and administered as a 3-hour intravenous infusion to non-fasted male Sprague-Dawley rats (n=3 per group) via femoral vein cannula at a final dose of 0.100 mg/kg. […] Blood samples (approximately 250 μL) were collected for pharmacokinetic analysis via a jugular vein cannula at 0.25, 0.5, 1, 2, 3, 3.17, 3.33, 3.5, 4, 4.5, 5, and 6 hr post-start of infusion (long method) or at 1, 1.5, 2, 2.5, and 3 hr post-start of infusion (steady-state screening method). All samples were collected into microtainer tubes containing K2EDTA as anticoagulant and 25 μL of a protease inhibitor cocktail. Plasma was prepared by centrifugation and stored at −80° C. until analysis. The results of this analysis are shown in Table 9 and few exemplars in FIGS. 3a-3b.
A 60 μL aliquot of each plasma sample was placed into to a 96-well plate. To each well was added 6 μL of 0.5% Tween-20. Plates were then vortexed mixed for 10 minutes at 1200 rpm before 180 μL of 0.1% TFA in 2:1 ethanol:acetonitrile containing an appropriate internal standard was added to each well. Plates were vortex mixed for 5 min at 1300 rpm, and then centrifuged for 10 min at 2844×g. Supernatants (180 μL) were placed into a clean 96-well plate and evaporated under a nitrogen stream at 45° C. Residues were reconstituted in 80 μL of 20% acetonitrile (aq) containing 0.1% formic acid.
A […] aliquot of each plasma sample was diluted with […] of 10 mM ammonium acetate (pH 6.8) containing an appropriate internal standard and loaded onto an Oasis WCX microElution plate (Waters Corporation, Milford, MA) that had been pre-conditioned with […] of methanol and […] of deionized water. Samples were washed with […] of 5% ammonium hydroxide (aq) followed by […] of 20% acetonitrile in water. The analyte was eluted with […] of 5% formic acid in 75:25 acetonitrile:water. The eluent was dried under a nitrogen stream. Residues were reconstituted in 80 μL of 20% acetonitrile (aq) containing 0.1% formic acid.
All calibration standards were prepared in control rat plasma containing K2EDTA and protease inhibitor cocktail.
Samples and standards were analyzed by TurbolonSpray™ UPLC-MS/MS using a system consisting of a CTC HTS PAL auto-injector (Leap, Carrboro, NC), an Agilent Infinity 1290 system with column oven (Palo Alto, CA), a Valco switching valve (Houston, TX), and either an AB Sciex API 5600 TripleTOF™ or Sciex API 4000QTrap mass spectrometer (Framingham, MA). Samples were injected onto a 2.1×50 mm reverse phase C18 analytical column, typically a Waters CORTECS UPLC C18+, 1.6 μm (Waters Corporation, Milford, MA) or similar. […] Initial conditions consisted of 90% A and 10% B. The organic component was increased to 95% B over a period of 3-4 minutes, depending on the peptide. Typical flow rates were 600 μL/min. The column temperature was held constant at 40 or 50° C. Peptides were quantified by monitoring one or more product ions produced from a multiply charged parent ion.

Data set [2] concerns the target T1, human calcitonin receptor (hCTR) (Homo sapiens, UniProt P30988).
T1 sequence (P30988 25-474): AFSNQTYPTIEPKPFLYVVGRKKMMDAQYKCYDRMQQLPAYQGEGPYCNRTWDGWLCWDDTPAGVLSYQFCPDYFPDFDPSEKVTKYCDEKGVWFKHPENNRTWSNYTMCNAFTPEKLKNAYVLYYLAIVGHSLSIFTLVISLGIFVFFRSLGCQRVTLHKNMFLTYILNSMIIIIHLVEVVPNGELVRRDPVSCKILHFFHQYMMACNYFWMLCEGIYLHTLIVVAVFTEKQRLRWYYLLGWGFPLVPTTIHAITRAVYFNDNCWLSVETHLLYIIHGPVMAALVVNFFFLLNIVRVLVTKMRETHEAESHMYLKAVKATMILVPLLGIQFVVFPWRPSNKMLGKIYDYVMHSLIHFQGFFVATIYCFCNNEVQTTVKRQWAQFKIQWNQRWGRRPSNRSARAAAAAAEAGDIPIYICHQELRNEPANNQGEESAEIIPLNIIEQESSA
The experiment in a line: cAMP accumulation functional assay in HEK293-CNG cells expressing hCTR. It counts as cell-based. The following applies: presence versus absence of HSA (FIG. 2D). On the procedure: In the presence of the non-specific cAMP/cGMP phosphodiesterase inhibitor 3-isobutyl-1-methylxanthine (IBMX), accumulating cAMP can be measured in vitro using common detection methods. Thus, it is possible to estimate an in vitro potency (pEC50) for peptides activating each of these receptors using fit dose-response curves for cAMP accumulation.
Cells were carried in growth media for no more than 10 passages prior to testing.
Peptides were serially diluted in the same buffer as above for each given assay condition. Two assay control solutions consisting of 50 mcM forskolin (cAMP system maximum) or assay buffer only (cAMP system minimum) were also prepared in the appropriate stimulation buffers. Five microliters of each peptide-concentration, or assay control was added to triplicate wells and incubated for thirty minutes at room temperature. During this incubation step a 4× europium labelled cAMP tracer solution and a 4× Ulight®-anti-cAMP solution (consisting of an anti-cAMP monoclonal antibody labelled with Ulight™ dye) was prepared according to the manufacturer's protocol (PerkinElmer LANCE Ultra cAMP kit). Following this incubation, 5 mcL europium labelled cAMP and 5 mcL Ulight anti-cAMP antibody was added to wells. The plate was covered with an adhesive cover to prevent evaporation and incubated for 60 minutes at room temperature in the dark. Plates were read on an Envision fluorescent plate reader (PerkinElmer).
Test values were first normalized to the forskolin induced cAMP system maximum and system minimum averaged values in Excel using the formula: (test value−system minavg)/(system maxavg−system minavg)*100. Normalized test values represent a baseline corrected percentage of the system maximum cAMP response induced by forskolin. Normalized data was analyzed from triplicate tests and used to estimate the EC50 for each peptide on each receptor. Data was fit in GraphPad Prism software (v7.04) using a 4-parameter logistic curve model: Y=Bottom+(Top−Bottom)/(1+10^((Log EC50−X))). The Hill slope was constrained to 1.0. EC50 values were converted to pEC50 values using the formula: pEC50=−Log (EC50).

Data set [3] is described as follows: in vivo. Particulars: rat, iv, 0.033 mg/kg. Details: species or system Sprague-Dawley rats. Summed up:
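Male Sprague-Dawley rats, non-fasted (n=3), given peptide in saline as 1-h IV or SC infusion at 0.033 mg/kg, or SC bolus at 0.3 mg/kg; jugular blood to 48 h into K2EDTA plus protease inhibitors. Plasma extracted by precipitation or WCX solid-phase extraction, quantified by UPLC-MS/MS against standards in matching rat plasma.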

Regarding `CC[C@H](C)[C@H](NC(=O)[C@@H]1CCCN1C(=O)CNC(=O)[C@H](Cc1ccccc1)NC(=O)[C@H](CC(N)=O)NC(=O)[C@H](CC(N)=O)NC(=O)[C@H](CO)NC(=O)[C@H](CO)NC(=O)[C@H](CCCNC(=N)N)NC(=O)[C@H](Cc1c[nH]cn1)NC(=O)[C@H](CC(C)C)NC(=O)[C@H](CCC(=O)O)NC(=O)[C@H](CC(N)=O)NC(=O)[C@H](CO)NC(=O)[C@H](CC(C)C)NC(=O)[C@H](CCCNC(=N)N)NC(=O)[C@H](CCC(N)=O)NC(=O)[C@@H](NC(=O)[C@H](C)NC(=O)[C@@H]1CSSC[C@H](NC(=O)[C@@H](N)CO)C(=O)N[C@@H](CC(N)=O)C(=O)N[C@@H]([C@@H](C)O)C(=O)N[C@@H](CO)C(=O)N[C@@H]([C@@H](C)O)C(=O)N1)[C@@H](C)O)C(=O)N[C@@H](CC(C)C)C(=O)N1CCC[C@H]1C(=O)N1CCC[C@H]1C(=O)N[C@H](C(=O)N[C@@H](CCCCN)C(=O)N[C@H](C(=O)NCC(=O)N[C@@H](CO)C(=O)N[C@@H](CCC(=O)O)C(=O)N[C@H](C(=O)N[C@@H](Cc1ccc(O)cc1)C(N)=O)[C@@H](C)O)C(C)C)[C@@H](C)O` [Compound A34] (H-SCNTSTCATQRLSNELHRSSNNFGPILPPTKVGSETY-NH2; disulfide 2-7), the clearance in data set [1] came out at 15.5 mL/min/kg.

As for `CC[C@H](C)[C@H](NC(=O)[C@H](C)NC(=O)[C@@H](NC(=O)[C@H](CCC(N)=O)NC(=O)[C@@H]1CCCN1C(=O)[C@H](Cc1ccccc1)NC(=O)[C@@H](NC(=O)[C@H](Cc1c[nH]cn1)NC(=O)[C@H](Cc1ccccc1)NC(=O)[C@H](CCCCN)NC(=O)[C@H](CC(N)=O)NC(=O)[C@H](Cc1ccccc1)NC(=O)[C@H](CC(=O)O)NC(=O)[C@H](CCC(N)=O)NC(=O)[C@@H](NC(=O)[C@H](Cc1ccc(O)cc1)NC(=O)[C@@H](NC(=O)CNC(=O)[C@H](CC(C)C)NC(=O)[C@H](CCSC)NC(=O)[C@@H]1CSSC[C@H](N)C(=O)NCC(=O)N[C@@H](CC(N)=O)C(=O)N[C@@H](CC(C)C)C(=O)N[C@@H](CO)C(=O)N[C@@H]([C@@H](C)O)C(=O)N1)[C@@H](C)O)[C@@H](C)O)[C@@H](C)O)[C@@H](C)O)C(=O)NCC(=O)N[C@H](C(=O)NCC(=O)N[C@@H](C)C(=O)N1CCC[C@H]1C(N)=O)C(C)C` [hCalcitonin, human calcitonin, reference compound], the “effect of HSA on potency at hCTR” value in data set [2] is “unaffected by the presence of HSA”.

In the case of `CC[C@H](C)[C@H](NC(=O)[C@@H]1CCCN1C(=O)CNC(=O)[C@H](Cc1ccccc1)NC(=O)[C@H](CC(N)=O)NC(=O)[C@H](CC(N)=O)NC(=O)[C@H](CO)NC(=O)[C@H](CO)NC(=O)[C@H](CCCCN)NC(=O)[C@H](Cc1c[nH]cn1)NC(=O)[C@H](CCCCNC(=O)CCCCCCCCCCC(=O)O)NC(=O)[C@H](CCC(=O)O)NC(=O)[C@H](CC(N)=O)NC(=O)[C@H](C)NC(=O)[C@H](CC(C)C)NC(=O)[C@H](CCCNC(=N)N)NC(=O)[C@H](CCC(N)=O)NC(=O)[C@@H](NC(=O)[C@H](C)NC(=O)[C@@H]1CSSC[C@H](NC(=O)[C@@H](N)CO)C(=O)N[C@@H](CC(N)=O)C(=O)N[C@@H]([C@@H](C)O)C(=O)N[C@@H](CO)C(=O)N[C@@H]([C@@H](C)O)C(=O)N1)[C@@H](C)O)C(=O)N[C@@H](CC(C)C)C(=O)N1CCC[C@H]1C(=O)N1CCC[C@H]1C(=O)N[C@H](C(=O)N[C@@H](CCCCN)C(=O)N[C@H](C(=O)NCC(=O)N[C@@H](CO)C(=O)N[C@@H](CCC(=O)O)C(=O)N[C@H](C(=O)N[C@@H](Cc1ccc(O)cc1)C(N)=O)[C@@H](C)O)C(C)C)[C@@H](C)O` [Compound A74] (H-SCNTSTCATQRLANEK(C12 diacid)HKSSNNFGPILPPTKVGSETY-NH2; disulfide 2-7), in data set [3], the Vd was determined as 0.331 L/kg, the clearance amounted to 12.2 mL/min/kg and the half-life was 19.9 min.

For the compound `CCCCCCCCCCCCCCCC(=O)N[C@@H](CCC(=O)NCCCC[C@H](NC(=O)[C@H](CC(C)C)NC(=O)[C@H](CCC(=O)O)NC(=O)[C@H](CC(N)=O)NC(=O)[C@H](C)NC(=O)[C@H](CC(C)C)NC(=O)[C@H](CCCNC(=N)N)NC(=O)[C@H](CCC(N)=O)NC(=O)[C@@H](NC(=O)[C@H](C)NC(=O)[C@@H]1CSSC[C@H](NC(=O)[C@@H](N)CO)C(=O)N[C@@H](CC(N)=O)C(=O)N[C@@H]([C@@H](C)O)C(=O)N[C@@H](CO)C(=O)N[C@@H]([C@@H](C)O)C(=O)N1)[C@@H](C)O)C(=O)N[C@@H](CCCCN)C(=O)N[C@@H](CO)C(=O)N[C@@H](CO)C(=O)N[C@@H](CC(N)=O)C(=O)N[C@@H](CC(N)=O)C(=O)N[C@@H](Cc1ccccc1)C(=O)NCC(=O)N1CCC[C@H]1C(=O)N[C@H](C(=O)N[C@@H](CC(C)C)C(=O)N1CCC[C@H]1C(=O)N1CCC[C@H]1C(=O)N[C@H](C(=O)N[C@@H](CCCCN)C(=O)N[C@H](C(=O)NCC(=O)N[C@@H](CO)C(=O)N[C@@H](CCC(=O)O)C(=O)N[C@H](C(=O)N[C@@H](Cc1ccc(O)cc1)C(N)=O)[C@@H](C)O)C(C)C)[C@@H](C)O)[C@@H](C)CC)C(=O)O` [Compound A10] (H-SCNTSTCATQRLANELK([γGlu-Palmitoyl])KSSNNFGPILPPTKVGSETY-NH2; disulfide 2-7), in data set [3], the Vd turned out to be 0.245 L/kg, the clearance came to 3.72 mL/min/kg and the half-life was 57.9 min.

The record behind these values is patent US12018059B2, “Human amylin analog polypeptides and methods of use” (Intarcia Therapeutics, Inc., priority 2018, dated 2024).
